Test results taken from US20060110332A1, “Agent for medicamentous treatment of acute and chronic pain” (Max-Delbruck-Centrum Fur Molekulare Medizin, priority 2002, published 2006).
“Also recorded” adds a separate entry of the source. Read-outs that look alike come from different tables or passages of the source.

Experiments:
[1] = tested on: cutaneous mechanotransduction; test: Skin-nerve preparation (saphenous nerve), mechanical sensitivity of the skin; design: species or system mice
Protocol: The use of the skin-nerve preparation, which the present invention is based on, allows for the electrophysiological analysis of the different neurofibre types which innervate the skin (Koltzenburg et al., 1997, see above). The saphenous nerve and the region of the skin that it innervates are prepared from freshly killed mice and are mounted in a bath of physiological buffer. After mechanical or electrical stimulation of the skin, the nerve signals can be received directly from the nerve. For determining the effective concentration, tests were carried out with different concentrations of mibefradil in the bath solution. The EC50 of mibefradil on cells is between 0.1 and 1 μM. […] The unspecific blockade at high concentrations may be due to the fact that mibefradil, at high concentrations, has a very unspecific effect on other ubiquitously expressed calcium channels. Such blocking is lost at lower concentrations. The blocking of some AM mechanoreceptors also at low concentrations of mibefradil could have two reasons. The first possibility is that AM mechanoreceptors, too, express CaV3.2. This, however, is not very likely based on the findings obtained by the in-situ hybridisation within the framework of the present invention. It may rather be assumed that a different isotype, i.e. CaV3.3 is expressed in AM mechanoreceptors. It was not possible to detect CaV3.3 in in-situ hybridisation experiments in spinal ganglia, but other groups reported the expression of this calcium channel in medium-size cells. […] To sum up, it is concluded that the calcium channel CaV3.2 in spinal ganglia specifically expresses in D-hair mechanoreceptors and is therefore indispensable for its function. The discovery that the voltage-dependent calcium channels are involved in the transduction of mechanical stimuli by nociceptive and non-nociceptive neurons is new. Due to their physiological properties together with their specific localisation on the site of the mechanotransduction in the periphery, the calcium channels are ideal targets for pain therapy, which the invention is based on.

D-hair mechanoreceptors = test: Skin-nerve preparation (saphenous nerve), D-hair mechanoreceptors; design: species or system mice; details: 3 μM mibefradil in the bath solution
Protocol: (§1) The use of the skin-nerve preparation, which the present invention is based on, allows for the electrophysiological analysis of the different neurofibre types which innervate the skin (Koltzenburg et al., 1997, see above). The saphenous nerve and the region of the skin that it innervates are prepared from freshly killed mice and are mounted in a bath of physiological buffer. After mechanical or electrical stimulation of the skin, the nerve signals can be received directly from the nerve. For determining the effective concentration, tests were carried out with different concentrations of mibefradil in the bath solution. The EC50 of mibefradil on cells is between 0.1 and 1 μM. […] The unspecific blockade at high concentrations may be due to the fact that mibefradil, at high concentrations, has a very unspecific effect on other ubiquitously expressed calcium channels. Such blocking is lost at lower concentrations. The blocking of some AM mechanoreceptors also at low concentrations of mibefradil could have two reasons. The first possibility is that AM mechanoreceptors, too, express CaV3.2. This, however, is not very likely based on the findings obtained by the in-situ hybridisation within the framework of the present invention. It may rather be assumed that a different isotype, i.e. CaV3.3 is expressed in AM mechanoreceptors. […]

AM mechanoreceptors = test: Skin-nerve preparation (saphenous nerve), AM mechanoreceptors; design: species or system mice; details: 3 μM mibefradil in the bath solution
Protocol: as §1

CaV3.1 = CaV3.1 (Rattus norvegicus, UniProt O54898); details: compared with CaV3.2; cited from earlier work
Chain of CaV3.1 (O54898 whole entry): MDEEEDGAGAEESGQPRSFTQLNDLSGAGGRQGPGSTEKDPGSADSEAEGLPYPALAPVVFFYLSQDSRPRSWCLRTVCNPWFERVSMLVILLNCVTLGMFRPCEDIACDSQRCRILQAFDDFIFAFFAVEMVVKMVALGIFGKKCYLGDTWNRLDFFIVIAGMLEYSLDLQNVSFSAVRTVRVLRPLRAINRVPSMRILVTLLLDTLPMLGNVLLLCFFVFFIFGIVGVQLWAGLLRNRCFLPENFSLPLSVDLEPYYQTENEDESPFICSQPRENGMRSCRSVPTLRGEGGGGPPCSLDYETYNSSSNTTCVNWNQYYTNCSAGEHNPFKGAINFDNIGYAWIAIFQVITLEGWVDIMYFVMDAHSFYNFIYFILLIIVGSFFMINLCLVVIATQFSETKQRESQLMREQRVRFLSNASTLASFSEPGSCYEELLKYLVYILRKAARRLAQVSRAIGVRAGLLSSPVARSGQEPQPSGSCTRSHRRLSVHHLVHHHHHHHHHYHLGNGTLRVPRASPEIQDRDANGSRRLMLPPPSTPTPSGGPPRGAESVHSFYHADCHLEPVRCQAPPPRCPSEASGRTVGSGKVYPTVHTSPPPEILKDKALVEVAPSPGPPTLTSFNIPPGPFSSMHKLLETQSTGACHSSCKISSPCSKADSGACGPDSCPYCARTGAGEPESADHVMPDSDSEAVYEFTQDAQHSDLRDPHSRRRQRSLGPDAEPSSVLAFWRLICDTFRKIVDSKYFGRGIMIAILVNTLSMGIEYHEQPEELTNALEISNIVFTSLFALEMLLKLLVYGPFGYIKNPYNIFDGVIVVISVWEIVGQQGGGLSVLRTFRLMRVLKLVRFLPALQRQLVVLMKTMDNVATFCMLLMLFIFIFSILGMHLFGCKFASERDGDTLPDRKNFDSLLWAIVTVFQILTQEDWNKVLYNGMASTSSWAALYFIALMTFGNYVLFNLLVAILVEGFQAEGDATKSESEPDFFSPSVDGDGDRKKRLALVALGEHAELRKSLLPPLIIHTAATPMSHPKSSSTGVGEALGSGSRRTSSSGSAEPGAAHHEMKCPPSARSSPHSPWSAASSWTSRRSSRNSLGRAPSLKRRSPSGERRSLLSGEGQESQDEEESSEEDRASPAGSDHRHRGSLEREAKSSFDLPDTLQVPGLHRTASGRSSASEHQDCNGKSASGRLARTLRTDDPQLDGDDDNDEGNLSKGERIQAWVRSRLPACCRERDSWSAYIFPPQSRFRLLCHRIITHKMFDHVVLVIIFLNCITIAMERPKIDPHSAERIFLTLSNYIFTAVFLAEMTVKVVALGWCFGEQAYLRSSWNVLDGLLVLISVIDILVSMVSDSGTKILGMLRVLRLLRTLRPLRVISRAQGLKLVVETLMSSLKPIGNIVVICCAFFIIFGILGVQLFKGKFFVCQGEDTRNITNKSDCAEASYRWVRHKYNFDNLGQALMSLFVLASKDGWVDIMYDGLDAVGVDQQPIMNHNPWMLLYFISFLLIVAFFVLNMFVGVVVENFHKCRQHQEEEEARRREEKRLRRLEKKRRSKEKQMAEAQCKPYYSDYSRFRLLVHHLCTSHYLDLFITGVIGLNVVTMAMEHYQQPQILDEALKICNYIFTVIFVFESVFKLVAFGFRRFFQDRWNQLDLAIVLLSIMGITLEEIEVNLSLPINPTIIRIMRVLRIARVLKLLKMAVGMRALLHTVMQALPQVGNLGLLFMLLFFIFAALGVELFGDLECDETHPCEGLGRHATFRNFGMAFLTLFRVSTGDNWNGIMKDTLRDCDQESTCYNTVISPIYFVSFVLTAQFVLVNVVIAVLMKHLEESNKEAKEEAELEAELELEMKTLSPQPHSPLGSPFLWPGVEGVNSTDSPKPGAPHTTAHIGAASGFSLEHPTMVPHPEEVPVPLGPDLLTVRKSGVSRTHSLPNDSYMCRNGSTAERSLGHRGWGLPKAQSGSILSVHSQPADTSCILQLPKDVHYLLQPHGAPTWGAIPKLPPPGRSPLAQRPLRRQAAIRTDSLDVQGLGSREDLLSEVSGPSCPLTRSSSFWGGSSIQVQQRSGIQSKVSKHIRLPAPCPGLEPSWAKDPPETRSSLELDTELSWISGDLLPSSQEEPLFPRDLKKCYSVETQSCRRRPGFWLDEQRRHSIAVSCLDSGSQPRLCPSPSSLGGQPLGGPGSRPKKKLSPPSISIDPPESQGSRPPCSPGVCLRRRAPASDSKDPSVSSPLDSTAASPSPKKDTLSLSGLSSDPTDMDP

CaV3.3 = details: compared with CaV3.2, cited from earlier work
L-type calcium channels = details: cited from earlier work
[2] = reason for removal from the market; cited from earlier work
T-type calcium channels = details: cited from earlier work
CaV3.2 = CaV3.2 (Homo sapiens, UniProt O95180); details: cited from earlier work
Chain of CaV3.2 (O95180 whole entry): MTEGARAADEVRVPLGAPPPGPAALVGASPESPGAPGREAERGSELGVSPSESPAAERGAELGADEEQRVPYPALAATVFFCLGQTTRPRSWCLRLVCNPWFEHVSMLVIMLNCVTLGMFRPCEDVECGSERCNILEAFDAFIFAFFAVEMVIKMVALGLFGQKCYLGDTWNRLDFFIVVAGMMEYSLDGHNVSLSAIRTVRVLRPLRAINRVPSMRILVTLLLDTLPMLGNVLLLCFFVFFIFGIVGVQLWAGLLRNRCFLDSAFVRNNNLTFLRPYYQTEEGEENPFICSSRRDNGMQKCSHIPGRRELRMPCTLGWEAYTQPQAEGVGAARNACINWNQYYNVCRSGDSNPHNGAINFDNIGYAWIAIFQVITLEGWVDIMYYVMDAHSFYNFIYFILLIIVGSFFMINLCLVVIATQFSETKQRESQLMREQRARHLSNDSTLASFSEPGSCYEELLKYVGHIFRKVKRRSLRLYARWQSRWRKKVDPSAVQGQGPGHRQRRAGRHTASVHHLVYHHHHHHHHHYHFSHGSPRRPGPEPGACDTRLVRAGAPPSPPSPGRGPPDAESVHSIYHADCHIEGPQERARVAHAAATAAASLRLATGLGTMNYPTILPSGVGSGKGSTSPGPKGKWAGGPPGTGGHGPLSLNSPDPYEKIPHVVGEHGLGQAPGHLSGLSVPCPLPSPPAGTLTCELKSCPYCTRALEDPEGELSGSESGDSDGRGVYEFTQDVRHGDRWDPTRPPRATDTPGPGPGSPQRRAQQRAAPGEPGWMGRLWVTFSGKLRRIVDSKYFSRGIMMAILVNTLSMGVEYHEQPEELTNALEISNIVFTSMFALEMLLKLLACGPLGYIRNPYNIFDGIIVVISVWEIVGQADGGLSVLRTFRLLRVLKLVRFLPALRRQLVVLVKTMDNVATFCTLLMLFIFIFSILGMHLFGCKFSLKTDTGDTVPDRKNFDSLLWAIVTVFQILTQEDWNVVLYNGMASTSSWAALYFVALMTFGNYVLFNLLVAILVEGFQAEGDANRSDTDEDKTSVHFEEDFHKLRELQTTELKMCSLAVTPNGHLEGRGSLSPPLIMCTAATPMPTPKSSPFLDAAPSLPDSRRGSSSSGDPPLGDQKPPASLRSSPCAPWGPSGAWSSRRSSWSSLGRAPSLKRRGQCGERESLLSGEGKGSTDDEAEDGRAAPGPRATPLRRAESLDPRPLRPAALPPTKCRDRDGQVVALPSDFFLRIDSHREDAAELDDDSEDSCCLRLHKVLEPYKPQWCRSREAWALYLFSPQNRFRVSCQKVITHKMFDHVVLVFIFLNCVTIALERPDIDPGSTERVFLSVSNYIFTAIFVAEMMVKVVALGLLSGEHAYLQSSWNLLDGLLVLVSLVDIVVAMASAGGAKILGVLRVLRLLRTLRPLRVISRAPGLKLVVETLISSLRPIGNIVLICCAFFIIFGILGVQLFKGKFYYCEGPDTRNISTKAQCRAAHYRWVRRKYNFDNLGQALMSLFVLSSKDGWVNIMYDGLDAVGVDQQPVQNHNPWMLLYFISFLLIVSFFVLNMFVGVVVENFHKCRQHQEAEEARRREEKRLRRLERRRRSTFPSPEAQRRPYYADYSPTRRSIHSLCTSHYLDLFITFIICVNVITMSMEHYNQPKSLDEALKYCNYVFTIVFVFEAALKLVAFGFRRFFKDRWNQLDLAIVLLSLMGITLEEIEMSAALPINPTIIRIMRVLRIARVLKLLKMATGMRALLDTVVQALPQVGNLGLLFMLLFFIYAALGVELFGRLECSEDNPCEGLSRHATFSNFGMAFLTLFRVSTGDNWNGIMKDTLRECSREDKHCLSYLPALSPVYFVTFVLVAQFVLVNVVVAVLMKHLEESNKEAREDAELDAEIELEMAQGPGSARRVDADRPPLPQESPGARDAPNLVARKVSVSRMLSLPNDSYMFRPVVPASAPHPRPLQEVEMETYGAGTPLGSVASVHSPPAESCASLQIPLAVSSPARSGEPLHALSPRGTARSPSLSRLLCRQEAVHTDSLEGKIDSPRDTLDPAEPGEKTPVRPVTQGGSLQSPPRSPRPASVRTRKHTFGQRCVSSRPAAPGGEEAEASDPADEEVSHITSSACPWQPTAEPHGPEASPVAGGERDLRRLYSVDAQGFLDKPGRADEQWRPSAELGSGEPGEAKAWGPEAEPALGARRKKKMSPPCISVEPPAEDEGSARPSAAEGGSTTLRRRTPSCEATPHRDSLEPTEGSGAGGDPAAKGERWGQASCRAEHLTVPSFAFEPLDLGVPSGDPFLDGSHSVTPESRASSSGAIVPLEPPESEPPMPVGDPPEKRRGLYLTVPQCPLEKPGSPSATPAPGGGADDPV

living tissue = details: cited from earlier work

Compound	blocking of mechanotransduction ([1]; higher concentrations of mibefradil)	inhibition of cutaneous mechanotransduction ([1]; low concentrations (25 μM or less))	blocking of the mechanical sensitivity ([1]; more than 25 μM mibefradil in the bath solution)	inhibition of D-hair mechanoreceptors (D-hair mechanoreceptors)	inhibition of AM mechanoreceptors (AM mechanoreceptors)	effect on T-type isotype CaV3.1 (CaV3.1)	effect / semi-effective concentration on CaV3.3 (CaV3.3)	effect / semi-effective concentration on CaV3.3 (CaV3.3; listed as Mibefradil)	concentration blocking L-type relative to that necessary for T-type blocking (L-type calcium channels)	interaction with other medicaments [2]	selectivity for T-type calcium channels (T-type calcium channels)	EC50 on CaV3.2 relative to the other isotypes (CaV3.2; CaV3.2 versus other T-type isotypes) [times]	EC50 (CaV3.2; read-out: EC50 on CaV3.2) [µM]	cytotoxicity (living tissue)
COCC(=O)O[C@]1(CCN(C)CCCc2nc3ccccc3[nH]2)CCc2cc(F)ccc2[C@@H]1C(C)C [mibefradil]	complex blocking of other mechanoreceptors; also recorded: blocks not only the D-hair mechanotransduction but also the entire mechanotransduction	virtually inhibits the entire cutaneous mechanotransduction	almost complete and unspecific blocking of the mechanical sensitivity	specifically inhibited	in part, also AM mechanoreceptors are specifically inhibited	almost identical effect	almost identical	almost identical effect	about 10 fold	severe interaction with other medicaments	relatively high selectivity for T-type calcium channels	–	–	–
[Ni] [nickel]	–	–	–	–	–	–	–	–	–	–	–	70	~10	cytotoxic
